What was measured:
Assay in all cases: relative viability (nuclei count vs DMSO), 5 days (fraction); higher = more cells survive
Carfilzomib + Dasatinib = compound: CC(C)C[C@H](NC(=O)[C@H](CCc1ccccc1)NC(=O)CN1CCOCC1)C(=O)N[C@@H](Cc1ccccc1)C(=O)N[C@@H](CC(C)C)C(=O)[C@@]1(C)CO1 [Carfilzomib] + Cc1nc(Nc2ncc(C(=O)Nc3c(C)cccc3Cl)s2)cc(N2CCN(CCO)CC2)n1 [Dasatinib] (partner 0.075 µM)
Outline: (§1)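 Relative viability equals treated-well nuclei counts divided by vehicle-well nuclei counts. Counts came from 4× images of lung cancer cell lines grown in 1536-well plates for 5 days after pin-tool dosing on the day after seeding. Dosing used one drug alone or a fixed anchor-drug dose plus five library-drug doses (not always all listed) in √10 steps, and values are medians of duplicate plates.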

Crizotinib + Navitoclax = compound: C[C@@H](Oc1cc(-c2cnn(C3CCNCC3)c2)cnc1N)c1c(Cl)ccc(F)c1Cl [Crizotinib] + CC1(C)CCC(c2ccc(Cl)cc2)=C(CN2CCN(c3ccc(C(=O)NS(=O)(=O)c4ccc(N[C@H](CCN5CCOCC5)CSc5ccccc5)c(S(=O)(=O)C(F)(F)F)c4)cc3)CC2)C1 [Navitoclax] (partner 0.5 µM)
Outline: as §1

Olaparib + Decitabine = compound: O=C(c1cc(Cc2n[nH]c(=O)c3ccccc23)ccc1F)N1CCN(C(=O)C2CC2)CC1 [Olaparib] + Nc1ncn([C@H]2C[C@H](O)[C@@H](CO)O2)c(=O)n1 [Decitabine] (partner 2 µM)
Outline: as §1

Crizotinib + Trametinib = compound: C[C@@H](Oc1cc(-c2cnn(C3CCNCC3)c2)cnc1N)c1c(Cl)ccc(F)c1Cl [Crizotinib] + CC(=O)Nc1cccc(-n2c(=O)n(C3CC3)c(=O)c3c(Nc4ccc(I)cc4F)n(C)c(=O)c(C)c32)c1 [Trametinib] (partner 0.02 µM)
Outline: as §1

Cell Line	relative viability (Carfilzomib + Dasatinib; first compound 0.001 µM)	relative viability (Carfilzomib + Dasatinib; first compound 0.003162 µM)	relative viability (Carfilzomib + Dasatinib; first compound 0.01 µM)	relative viability (Carfilzomib + Dasatinib; first compound 0.03162 µM)	relative viability (Carfilzomib + Dasatinib; first compound 0.1 µM)	relative viability (Crizotinib + Navitoclax; first compound 0.01 µM)	relative viability (Crizotinib + Navitoclax; first compound 0.03162 µM)	relative viability (Crizotinib + Navitoclax; first compound 0.1 µM)	relative viability (Crizotinib + Navitoclax; first compound 1 µM)	relative viability (Olaparib + Decitabine; first compound 0.08 µM)	relative viability (Olaparib + Decitabine; first compound 0.253 µM)	relative viability (Olaparib + Decitabine; first compound 2.53 µM)	relative viability (Olaparib + Decitabine; first compound 8 µM)	relative viability (Crizotinib + Trametinib; first compound 0.01 µM)	relative viability (Crizotinib + Trametinib; first compound 0.03162 µM)	relative viability (Crizotinib + Trametinib; first compound 0.1 µM)	relative viability (Crizotinib + Trametinib; first compound 0.3162 µM)	relative viability (Crizotinib + Trametinib; first compound 1 µM)	relative viability (Crizotinib + Navitoclax; first compound 0.3162 µM)
NCI-H1915	0.271	0.344	0.299	0.174	0.102	0.694	0.782	0.818	0.801	0.242	0.239	0.234	0.196	0.286	0.31	0.32	0.293	0.313	–
SW 1573	0.653	0.764	0.372	0.0426	0.0643	0.683	–	0.97	0.932	0.32	0.301	0.16	0.139	0.531	0.473	0.594	0.567	0.615	0.945
NCI-H2087	0.781	0.994	0.465	0.0405	0.0695	0.828	0.996	1.09	1.19	0.249	0.189	0.262	0.167	0.145	0.206	0.214	0.23	0.172	0.888
BEN	0.294	0.328	0.299	0.298	0.203	0.0724	0.0669	0.0752	0.0583	0.654	0.55	0.639	0.641	–	0.982	0.948	1.15	1.17	0.0683
NCI-H1650	0.282	0.304	0.207	0.165	0.172	1.1	1.15	1.08	1.13	0.432	0.39	0.32	0.354	0.548	0.605	0.607	0.559	0.58	1.2
A-427	0.776	0.853	0.597	0.0935	0.107	0.95	1.03	1	1.02	0.471	0.478	0.483	0.404	0.717	0.771	0.724	–	0.78	–
CAL-12T	0.321	0.484	0.509	0.174	0.108	1.19	1.22	1.06	1.21	–	–	–	–	0.268	0.413	0.32	0.393	0.374	1.18
EPLC-272H	0.379	0.407	0.215	0.0812	0.0631	–	1.1	1.26	1.15	0.478	0.349	0.302	0.329	0.277	0.281	0.299	–	0.307	1.1
NCI-H1563	0.431	0.463	0.488	0.505	0.367	–	–	–	–	–	–	–	–	–	–	–	–	–	–
HCC-44	–	–	–	–	–	0.838	0.969	0.963	1.05	0.812	0.846	0.783	0.802	0.933	1.04	1.03	1.15	1.04	1.01
Calu-6	–	–	–	–	–	0.8	0.766	0.836	0.735	–	–	–	–	–	–	–	–	–	0.774
NCI-H2342	0.364	0.32	0.355	0.374	0.321	–	–	–	–	0.756	0.606	0.663	0.619	0.818	0.896	0.78	0.868	0.829	–
NCI-H522	0.872	0.946	0.885	0.398	0.433	–	–	–	–	0.745	0.645	0.724	0.598	0.619	0.689	0.799	0.703	0.8	–
NCI-H1623	0.509	0.571	0.599	0.271	0.642	–	–	–	–	–	–	–	–	–	–	–	–	–	–
SW 900	0.561	0.467	0.137	0.141	0.137	–	–	–	–	0.355	0.331	0.413	0.355	0.907	0.9	0.752	0.938	0.614	–
NCI-H2228	0.539	0.526	0.442	0.0721	0.0819	1.01	1.2	0.648	0.409	–	–	–	–	0.415	0.492	0.648	0.3	0.521	0.996
NCI-H1299	–	–	–	–	–	1.04	1.02	1.01	1.01	–	–	–	–	–	–	–	–	–	1.07
NCI-H358	0.171	0.152	0.2	0.0675	0.0836	–	–	–	–	0.148	0.157	0.23	0.138	0.108	0.151	0.131	0.112	0.135	–
ABC-1	0.521	0.504	0.196	0.172	0.324	–	–	–	–	1.07	–	0.836	0.718	–	–	–	–	–	–
IA-LM	–	–	–	–	–	0.71	0.759	0.792	0.842	–	–	–	–	–	–	–	–	–	0.796
EBC-1	–	–	–	–	–	0.49	0.344	0.12	0.16	–	–	–	–	–	–	–	–	–	0.152
NCI-H1703	–	–	–	–	–	1.03	0.933	–	1.12	–	–	–	–	–	–	–	–	–	–

— the supplement of paper PMC10307832
